Assays:
Assay in all cases: Large panel kinase profiling
Type in all cases: biochemical
Details in all cases: 1 μM test article, 1 mM ATP
[1] = target: CAMK1D (Homo sapiens, UniProt Q8IU85)
Procedure, shortened: (§1)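 Activity is measured in real time from the CSox sensor's fluorescence at 485 nm after 360 nm excitation, sampled every minute. Assays run at 30° C. with 1 mM ATP and a single 1 μM compound dose.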

[2] = target: T1, FYNA (Homo sapiens, UniProt P06241)
T1 construct: AssayQuant Technologies, Inc. (service provider)
T1 sequence (P06241 whole entry): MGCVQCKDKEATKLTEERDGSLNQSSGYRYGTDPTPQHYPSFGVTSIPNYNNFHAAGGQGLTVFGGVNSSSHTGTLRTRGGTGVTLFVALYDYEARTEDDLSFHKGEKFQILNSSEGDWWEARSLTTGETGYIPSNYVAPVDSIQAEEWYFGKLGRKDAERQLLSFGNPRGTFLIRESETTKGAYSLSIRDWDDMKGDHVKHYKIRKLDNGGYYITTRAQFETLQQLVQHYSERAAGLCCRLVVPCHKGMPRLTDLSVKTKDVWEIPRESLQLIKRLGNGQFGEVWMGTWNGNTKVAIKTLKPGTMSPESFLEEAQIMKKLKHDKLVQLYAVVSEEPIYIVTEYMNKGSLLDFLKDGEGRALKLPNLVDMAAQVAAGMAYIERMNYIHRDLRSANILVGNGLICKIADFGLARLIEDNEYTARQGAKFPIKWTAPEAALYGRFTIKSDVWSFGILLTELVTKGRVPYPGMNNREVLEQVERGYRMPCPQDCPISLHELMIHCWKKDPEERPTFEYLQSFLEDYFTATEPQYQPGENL
Procedure, shortened: as §1

[3] = target: T2, MYLK4 (Homo sapiens, UniProt Q86YV6)
T2 construct: AssayQuant Technologies, Inc. (assay service)
T2 sequence (Q86YV6 1-388): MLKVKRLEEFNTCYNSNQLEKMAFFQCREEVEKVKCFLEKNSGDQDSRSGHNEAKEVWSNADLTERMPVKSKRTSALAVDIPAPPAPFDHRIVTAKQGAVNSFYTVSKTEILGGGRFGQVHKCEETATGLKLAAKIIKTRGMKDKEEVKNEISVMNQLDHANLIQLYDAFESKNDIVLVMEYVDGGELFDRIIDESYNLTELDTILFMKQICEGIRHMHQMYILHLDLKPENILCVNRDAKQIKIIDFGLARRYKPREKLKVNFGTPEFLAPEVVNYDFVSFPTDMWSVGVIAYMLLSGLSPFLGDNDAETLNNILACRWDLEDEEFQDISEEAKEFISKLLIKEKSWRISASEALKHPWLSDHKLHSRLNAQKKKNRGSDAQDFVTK
Procedure, shortened: as §1

[4] = target: NTRK3/TRKC (Homo sapiens, UniProt Q16288)
Chain of NTRK3/TRKC (Q16288 32-839): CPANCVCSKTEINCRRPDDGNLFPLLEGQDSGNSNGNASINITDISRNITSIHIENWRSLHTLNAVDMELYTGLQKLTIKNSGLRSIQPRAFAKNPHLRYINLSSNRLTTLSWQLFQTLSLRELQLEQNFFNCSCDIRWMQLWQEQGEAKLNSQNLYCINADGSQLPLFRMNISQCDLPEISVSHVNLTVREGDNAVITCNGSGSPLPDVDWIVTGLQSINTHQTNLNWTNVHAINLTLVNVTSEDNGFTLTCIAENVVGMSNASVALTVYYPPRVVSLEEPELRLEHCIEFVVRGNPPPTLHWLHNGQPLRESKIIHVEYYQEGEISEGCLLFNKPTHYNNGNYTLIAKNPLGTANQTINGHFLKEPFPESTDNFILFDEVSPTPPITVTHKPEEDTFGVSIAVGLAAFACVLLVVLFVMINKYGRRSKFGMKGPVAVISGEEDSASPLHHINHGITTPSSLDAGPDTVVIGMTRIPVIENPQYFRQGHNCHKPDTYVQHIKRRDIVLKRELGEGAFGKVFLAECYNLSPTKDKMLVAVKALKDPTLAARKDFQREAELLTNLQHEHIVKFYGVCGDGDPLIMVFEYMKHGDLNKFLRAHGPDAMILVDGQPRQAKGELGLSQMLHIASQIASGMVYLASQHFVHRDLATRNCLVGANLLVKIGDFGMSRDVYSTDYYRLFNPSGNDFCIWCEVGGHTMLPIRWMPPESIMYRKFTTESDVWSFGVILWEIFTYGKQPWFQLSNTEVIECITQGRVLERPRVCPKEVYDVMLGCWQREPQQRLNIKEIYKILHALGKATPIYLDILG
Procedure, shortened: as §1

[5] = target: PKN1 (Homo sapiens, UniProt Q16512)
Chain of PKN1 (Q16512 whole entry, species assumed): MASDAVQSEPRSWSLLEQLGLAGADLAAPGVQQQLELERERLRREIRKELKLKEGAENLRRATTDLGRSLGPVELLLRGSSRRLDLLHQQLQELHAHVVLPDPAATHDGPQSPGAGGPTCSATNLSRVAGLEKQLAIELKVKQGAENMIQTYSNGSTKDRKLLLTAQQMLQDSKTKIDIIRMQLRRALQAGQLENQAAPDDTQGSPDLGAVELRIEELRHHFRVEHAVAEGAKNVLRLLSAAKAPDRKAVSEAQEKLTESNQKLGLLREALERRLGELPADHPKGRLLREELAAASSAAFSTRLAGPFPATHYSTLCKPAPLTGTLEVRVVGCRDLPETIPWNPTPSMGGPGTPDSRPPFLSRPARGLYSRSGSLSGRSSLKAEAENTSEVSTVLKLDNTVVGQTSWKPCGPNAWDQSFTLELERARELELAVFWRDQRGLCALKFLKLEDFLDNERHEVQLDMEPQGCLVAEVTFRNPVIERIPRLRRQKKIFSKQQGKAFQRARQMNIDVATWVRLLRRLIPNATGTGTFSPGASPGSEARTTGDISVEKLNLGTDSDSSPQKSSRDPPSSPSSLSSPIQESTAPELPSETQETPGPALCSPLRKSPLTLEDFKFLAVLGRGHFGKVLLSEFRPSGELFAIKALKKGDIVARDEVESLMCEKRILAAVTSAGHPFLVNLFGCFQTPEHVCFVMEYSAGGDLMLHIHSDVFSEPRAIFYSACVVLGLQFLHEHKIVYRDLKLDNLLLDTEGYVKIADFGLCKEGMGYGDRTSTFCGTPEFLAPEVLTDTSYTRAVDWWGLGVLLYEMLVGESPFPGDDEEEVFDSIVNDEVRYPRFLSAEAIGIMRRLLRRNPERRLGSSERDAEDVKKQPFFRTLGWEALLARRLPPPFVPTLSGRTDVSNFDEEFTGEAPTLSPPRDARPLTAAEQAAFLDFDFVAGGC
Procedure, shortened: as §1

[6] = target: PKN2 (Homo sapiens, UniProt Q16513)
Chain of PKN2 (Q16513 whole entry, species assumed): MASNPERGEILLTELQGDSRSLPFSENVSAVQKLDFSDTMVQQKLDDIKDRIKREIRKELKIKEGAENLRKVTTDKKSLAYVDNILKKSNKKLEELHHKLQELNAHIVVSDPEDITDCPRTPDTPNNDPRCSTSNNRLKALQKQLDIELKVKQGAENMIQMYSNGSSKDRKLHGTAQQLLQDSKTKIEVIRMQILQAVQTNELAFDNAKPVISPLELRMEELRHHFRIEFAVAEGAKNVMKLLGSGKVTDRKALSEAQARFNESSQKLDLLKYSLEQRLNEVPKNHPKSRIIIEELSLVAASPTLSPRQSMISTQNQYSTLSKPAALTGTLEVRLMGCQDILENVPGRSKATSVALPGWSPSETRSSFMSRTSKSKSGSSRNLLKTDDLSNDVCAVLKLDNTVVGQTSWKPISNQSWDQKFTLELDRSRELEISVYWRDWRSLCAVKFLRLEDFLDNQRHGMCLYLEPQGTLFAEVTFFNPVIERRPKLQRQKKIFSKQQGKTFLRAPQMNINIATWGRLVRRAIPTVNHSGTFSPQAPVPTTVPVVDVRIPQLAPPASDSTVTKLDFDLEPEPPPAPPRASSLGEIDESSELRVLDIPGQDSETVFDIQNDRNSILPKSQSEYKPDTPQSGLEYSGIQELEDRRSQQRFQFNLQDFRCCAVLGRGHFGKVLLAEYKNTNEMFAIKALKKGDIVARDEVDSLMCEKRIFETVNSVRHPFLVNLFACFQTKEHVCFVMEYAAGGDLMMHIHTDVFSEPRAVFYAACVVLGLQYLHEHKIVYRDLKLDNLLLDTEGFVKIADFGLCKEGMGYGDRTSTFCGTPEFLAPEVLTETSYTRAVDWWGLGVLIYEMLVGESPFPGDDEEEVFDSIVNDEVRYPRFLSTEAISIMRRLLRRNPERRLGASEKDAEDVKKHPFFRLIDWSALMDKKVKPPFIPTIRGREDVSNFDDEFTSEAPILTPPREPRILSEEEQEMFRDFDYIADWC
Procedure, shortened: as §1

[7] = target: T3, TAOK2 (Homo sapiens, UniProt Q9UL54)
T3 construct: AssayQuant Technologies, Inc. (contract assay)
T3 sequence (Q9UL54 1-1235): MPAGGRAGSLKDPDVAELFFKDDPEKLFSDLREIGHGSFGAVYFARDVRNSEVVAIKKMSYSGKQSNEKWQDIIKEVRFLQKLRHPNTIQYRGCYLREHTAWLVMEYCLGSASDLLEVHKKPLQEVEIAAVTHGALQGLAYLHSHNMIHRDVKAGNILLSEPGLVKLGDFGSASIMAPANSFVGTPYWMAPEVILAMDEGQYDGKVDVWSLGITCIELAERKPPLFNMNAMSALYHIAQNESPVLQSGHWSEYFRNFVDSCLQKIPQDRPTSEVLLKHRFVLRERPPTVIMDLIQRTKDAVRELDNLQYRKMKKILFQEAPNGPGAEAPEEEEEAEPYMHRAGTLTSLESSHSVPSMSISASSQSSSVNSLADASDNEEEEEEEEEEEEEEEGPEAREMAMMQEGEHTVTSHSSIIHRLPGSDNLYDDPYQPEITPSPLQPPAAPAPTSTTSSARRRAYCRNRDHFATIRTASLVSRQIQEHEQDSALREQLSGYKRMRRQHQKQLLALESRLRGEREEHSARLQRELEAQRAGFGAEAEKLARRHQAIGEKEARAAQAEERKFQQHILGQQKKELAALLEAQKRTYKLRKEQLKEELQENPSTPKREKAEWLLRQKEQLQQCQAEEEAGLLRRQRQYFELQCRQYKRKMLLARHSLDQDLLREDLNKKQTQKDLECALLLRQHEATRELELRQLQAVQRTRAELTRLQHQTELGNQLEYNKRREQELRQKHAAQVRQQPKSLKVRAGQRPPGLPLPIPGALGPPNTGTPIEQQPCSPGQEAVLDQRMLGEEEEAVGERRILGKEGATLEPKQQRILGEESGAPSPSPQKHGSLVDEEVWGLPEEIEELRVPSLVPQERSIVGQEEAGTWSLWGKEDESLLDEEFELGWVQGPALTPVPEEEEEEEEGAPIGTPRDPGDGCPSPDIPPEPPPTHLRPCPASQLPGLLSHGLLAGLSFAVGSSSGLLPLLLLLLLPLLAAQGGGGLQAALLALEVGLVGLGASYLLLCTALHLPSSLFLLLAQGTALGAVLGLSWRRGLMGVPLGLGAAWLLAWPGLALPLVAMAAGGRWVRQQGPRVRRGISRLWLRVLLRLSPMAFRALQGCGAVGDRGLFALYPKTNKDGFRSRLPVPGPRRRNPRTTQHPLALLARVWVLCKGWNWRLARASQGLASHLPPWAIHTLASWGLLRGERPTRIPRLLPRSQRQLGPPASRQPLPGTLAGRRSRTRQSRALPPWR
Procedure, shortened: as §1

[8] = target: T4, TYK2(JH1) (Homo sapiens, UniProt P29597)
T4 construct: TYK2(JH1); AssayQuant Technologies, Inc. (contract laboratory that ran the panel)
T4 sequence (P29597 897-1176 limits assumed): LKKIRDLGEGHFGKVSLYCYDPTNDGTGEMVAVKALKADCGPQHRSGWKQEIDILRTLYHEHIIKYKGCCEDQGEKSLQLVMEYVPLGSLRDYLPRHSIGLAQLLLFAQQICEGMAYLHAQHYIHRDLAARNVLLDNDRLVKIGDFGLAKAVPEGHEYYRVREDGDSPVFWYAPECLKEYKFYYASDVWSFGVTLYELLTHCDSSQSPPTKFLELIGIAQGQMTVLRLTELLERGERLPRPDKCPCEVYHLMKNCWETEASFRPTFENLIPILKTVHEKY
Procedure, shortened: as §1

Chain of CAMK1D (Q8IU85 whole entry): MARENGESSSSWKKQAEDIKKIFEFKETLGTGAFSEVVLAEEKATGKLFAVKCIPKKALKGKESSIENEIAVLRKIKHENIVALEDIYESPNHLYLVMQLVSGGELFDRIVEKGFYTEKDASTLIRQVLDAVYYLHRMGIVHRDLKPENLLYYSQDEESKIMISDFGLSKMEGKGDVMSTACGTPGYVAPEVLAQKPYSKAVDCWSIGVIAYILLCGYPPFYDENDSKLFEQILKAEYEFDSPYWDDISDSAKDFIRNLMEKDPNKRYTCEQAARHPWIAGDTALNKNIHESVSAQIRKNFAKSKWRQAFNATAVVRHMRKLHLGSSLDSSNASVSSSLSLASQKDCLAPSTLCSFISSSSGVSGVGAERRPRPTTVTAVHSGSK

Row | Compound | inhibition at 1 µM [1] [%] | inhibition at 1 µM [2] [%] | inhibition at 1 µM [3] [%] | inhibition at 1 µM [4] [%] | inhibition at 1 µM [5] [%] | inhibition at 1 µM [6] [%] | inhibition at 1 µM [7] [%] | inhibition at 1 µM [8] [%]
1 | C=CC(=O)N1CCCC(c2c(F)cc(C(N)=O)c3[nH]c4c(c23)CCCCC4)C1 (single isomer, unassigned) [Compound 5-6] | 19.6 | 12 | 29.7 | -25.7 | 5.2 | 0.7 | -14.5 | -2.7
2 | C=CC(=O)N1CCC[C@@H](c2c(F)cc(C(N)=O)c3[nH]c4c(c23)CC2(CC4)CC2)C1 [Compound 6-2, (S)-5-(1-acryloylpiperidin-3-yl)-6-fluoro-1,2,4,9-tetrahydrospiro[carbazole-3,1′-cyclopropane]-8-carboxamide] | 26.1 | -5.2 | -30.5 | 5.7 | -10.2 | 16.2 | -24.8 | -1.1
3 | C=CC(=O)N1CCC[C@@H](c2c(F)cc(C(N)=O)c3[nH]c4c(c23)CCC4)C1 [Compound 10-2, (S)-8-(1-acryloylpiperidin-3-yl)-7-fluoro-1,2,3,4-tetrahydrocyclo-penta[b]indole-5-carboxamide] | 10.5 | -24.6 | -21.1 | 2.9 | 12 | 7.5 | 11.4 | 3.5

— patent publication US20220009920A1 (GB005, Inc., priority 2020, published 2022)
